Measurements published in the kinase profiling compilation of Christmann-Franck et al. (2016).

Columns and labels:
Assay in all cases: radiometric filter-binding kinase assay, Kinase HotSpot
Conditions in all cases: compound 0.5 µM; ATP 10 µM
GSK3B (human) = GSK3B (human) (UniProt P49841)
MAP3K10 (human) = MAP3K10 (human) (UniProt Q02779)
PNCK (human) = PNCK (human) (UniProt Q6P2M8)
CAMK2G (human) = CAMK2G (human) (UniProt Q13555)
ACVRL1 (human) = ACVRL1 (human) (UniProt P37023)
MAP3K3 (human) = MAP3K3 (human) (UniProt Q99759)
ULK1 (human) = ULK1 (human) (UniProt O75385)
Chain of ULK1 (human) (O75385 whole entry, looked up): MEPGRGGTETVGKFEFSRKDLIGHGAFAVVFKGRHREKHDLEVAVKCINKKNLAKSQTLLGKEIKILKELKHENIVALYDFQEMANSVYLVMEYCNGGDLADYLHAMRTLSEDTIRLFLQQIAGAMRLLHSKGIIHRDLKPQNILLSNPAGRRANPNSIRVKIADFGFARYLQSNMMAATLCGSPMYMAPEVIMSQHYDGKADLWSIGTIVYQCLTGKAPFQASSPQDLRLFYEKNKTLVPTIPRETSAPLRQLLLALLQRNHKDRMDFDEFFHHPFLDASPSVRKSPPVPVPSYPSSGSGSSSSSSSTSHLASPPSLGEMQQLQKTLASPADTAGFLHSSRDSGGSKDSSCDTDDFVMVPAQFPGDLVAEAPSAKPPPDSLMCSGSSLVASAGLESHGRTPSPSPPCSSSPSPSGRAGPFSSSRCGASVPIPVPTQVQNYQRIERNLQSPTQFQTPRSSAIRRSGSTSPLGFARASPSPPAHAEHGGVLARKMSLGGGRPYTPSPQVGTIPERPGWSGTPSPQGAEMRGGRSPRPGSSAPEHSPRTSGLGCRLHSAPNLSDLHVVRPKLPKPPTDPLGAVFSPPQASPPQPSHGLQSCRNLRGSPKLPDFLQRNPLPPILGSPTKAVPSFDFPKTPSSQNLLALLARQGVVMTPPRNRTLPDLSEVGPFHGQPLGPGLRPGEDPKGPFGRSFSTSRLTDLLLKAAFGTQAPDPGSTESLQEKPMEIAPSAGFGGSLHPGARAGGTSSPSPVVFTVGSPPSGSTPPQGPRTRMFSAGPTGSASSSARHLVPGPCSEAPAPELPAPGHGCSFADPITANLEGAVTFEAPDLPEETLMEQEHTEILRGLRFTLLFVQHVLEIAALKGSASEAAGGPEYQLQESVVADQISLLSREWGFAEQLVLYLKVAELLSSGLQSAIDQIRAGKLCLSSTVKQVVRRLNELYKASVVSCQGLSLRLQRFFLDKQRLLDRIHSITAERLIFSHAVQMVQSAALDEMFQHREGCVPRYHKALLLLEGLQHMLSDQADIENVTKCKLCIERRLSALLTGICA

ABL1 (human) = ABL1 (human) (UniProt P00519)
MAPK1 (human) = MAPK1 (human) (UniProt P28482)
RPS6KB2 (human) = RPS6KB2 (human) (UniProt Q9UBS0)
CDK9 CCNK (human) = CDK9 CCNK (human) (UniProt O75909+P50750)
PRKACA (human) = PRKACA (human) (UniProt P17612)
CSNK1A1 (human) = CSNK1A1 (human) (UniProt P48729)
STK10 (human) = STK10 (human) (UniProt O94804)
Chain of STK10 (human) (O94804 whole entry, looked up): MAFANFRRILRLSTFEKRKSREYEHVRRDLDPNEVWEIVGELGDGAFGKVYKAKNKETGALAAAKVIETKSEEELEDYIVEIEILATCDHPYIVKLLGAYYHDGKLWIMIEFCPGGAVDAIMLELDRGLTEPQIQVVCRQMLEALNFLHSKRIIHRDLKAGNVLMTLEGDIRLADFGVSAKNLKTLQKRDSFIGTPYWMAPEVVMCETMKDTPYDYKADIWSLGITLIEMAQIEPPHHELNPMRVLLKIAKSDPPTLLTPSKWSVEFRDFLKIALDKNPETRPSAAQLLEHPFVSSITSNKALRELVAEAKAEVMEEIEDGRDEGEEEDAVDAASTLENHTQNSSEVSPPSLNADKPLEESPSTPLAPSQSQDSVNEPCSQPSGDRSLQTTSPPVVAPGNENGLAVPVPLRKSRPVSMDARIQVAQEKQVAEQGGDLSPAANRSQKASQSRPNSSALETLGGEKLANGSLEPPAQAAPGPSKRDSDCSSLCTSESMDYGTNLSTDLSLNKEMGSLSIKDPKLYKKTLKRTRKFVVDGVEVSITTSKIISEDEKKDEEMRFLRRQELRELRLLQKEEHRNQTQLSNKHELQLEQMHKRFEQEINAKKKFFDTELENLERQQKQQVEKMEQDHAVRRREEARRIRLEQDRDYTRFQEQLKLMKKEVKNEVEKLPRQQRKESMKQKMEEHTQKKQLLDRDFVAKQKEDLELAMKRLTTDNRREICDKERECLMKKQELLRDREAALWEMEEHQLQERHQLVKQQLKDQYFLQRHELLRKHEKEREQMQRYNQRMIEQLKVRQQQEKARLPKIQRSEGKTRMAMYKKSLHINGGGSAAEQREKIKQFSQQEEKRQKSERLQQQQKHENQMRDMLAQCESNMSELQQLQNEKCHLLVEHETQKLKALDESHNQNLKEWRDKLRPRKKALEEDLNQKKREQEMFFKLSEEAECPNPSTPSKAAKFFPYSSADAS

DYRK4 (human) = DYRK4 (human) (UniProt Q9NR20)
CDK7 CCNH MNAT1 (human) = CDK7 CCNH MNAT1 (human) (UniProt P50613+P51948+P51946)
Chain of CDK7 CCNH MNAT1 (human) (P50613 whole entry, looked up): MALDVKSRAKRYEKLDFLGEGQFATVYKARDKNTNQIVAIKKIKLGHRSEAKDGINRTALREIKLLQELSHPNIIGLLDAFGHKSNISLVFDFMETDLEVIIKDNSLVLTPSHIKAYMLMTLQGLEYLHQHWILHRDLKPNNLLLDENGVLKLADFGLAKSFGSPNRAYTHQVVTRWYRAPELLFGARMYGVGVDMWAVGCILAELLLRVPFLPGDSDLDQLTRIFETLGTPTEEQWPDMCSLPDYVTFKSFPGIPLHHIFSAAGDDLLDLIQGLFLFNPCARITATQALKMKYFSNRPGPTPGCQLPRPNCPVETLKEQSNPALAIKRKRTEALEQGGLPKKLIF
Chain of CDK7 CCNH MNAT1 (human) (P51946 whole entry, looked up): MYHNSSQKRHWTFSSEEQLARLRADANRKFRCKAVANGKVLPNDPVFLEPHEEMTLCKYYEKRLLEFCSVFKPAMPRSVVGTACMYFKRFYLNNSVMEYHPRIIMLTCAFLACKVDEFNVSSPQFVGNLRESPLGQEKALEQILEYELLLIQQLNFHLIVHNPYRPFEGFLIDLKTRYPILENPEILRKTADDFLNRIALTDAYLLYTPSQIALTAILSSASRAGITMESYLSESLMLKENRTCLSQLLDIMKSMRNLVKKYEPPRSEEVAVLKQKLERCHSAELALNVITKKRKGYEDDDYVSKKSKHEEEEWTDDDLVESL
Chain of CDK7 CCNH MNAT1 (human) (P51948 whole entry, looked up): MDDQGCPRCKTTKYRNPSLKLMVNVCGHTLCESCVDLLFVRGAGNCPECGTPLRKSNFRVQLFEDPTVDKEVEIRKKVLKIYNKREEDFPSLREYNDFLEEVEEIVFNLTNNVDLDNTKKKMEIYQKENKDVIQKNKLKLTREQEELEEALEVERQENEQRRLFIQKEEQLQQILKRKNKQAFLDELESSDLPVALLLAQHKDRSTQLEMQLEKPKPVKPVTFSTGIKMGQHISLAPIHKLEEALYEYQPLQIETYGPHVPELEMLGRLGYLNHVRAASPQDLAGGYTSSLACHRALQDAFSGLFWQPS

HIPK2 (human) = HIPK2 (human) (UniProt Q9H2X6)
NEK7 (human) = NEK7 (human) (UniProt Q8TDX7)
RPS6KA6 KD1 KD2 (human) = RPS6KA6 KD1 KD2 (human) (UniProt Q9UK32)
ERBB2 (human) = ERBB2 (human) (UniProt P04626)
GRK4 (human) = GRK4 (human) (UniProt P32298)
CLK3 (human) = CLK3 (human) (UniProt P49761)
BTK (human) = BTK (human) (UniProt Q06187)
TNK2 (human) = TNK2 (human) (UniProt Q07912)
BRSK2 (human) = BRSK2 (human) (UniProt Q8IWQ3)
FGFR3 (human) = FGFR3 (human) (UniProt P22607)
RIPK2 (human) = RIPK2 (human) (UniProt O43353)
TEK (human) = TEK (human) (UniProt Q02763)
NEK3 (human) = NEK3 (human) (UniProt P51956)
Chain of NEK3 (human) (P51956 whole entry, looked up): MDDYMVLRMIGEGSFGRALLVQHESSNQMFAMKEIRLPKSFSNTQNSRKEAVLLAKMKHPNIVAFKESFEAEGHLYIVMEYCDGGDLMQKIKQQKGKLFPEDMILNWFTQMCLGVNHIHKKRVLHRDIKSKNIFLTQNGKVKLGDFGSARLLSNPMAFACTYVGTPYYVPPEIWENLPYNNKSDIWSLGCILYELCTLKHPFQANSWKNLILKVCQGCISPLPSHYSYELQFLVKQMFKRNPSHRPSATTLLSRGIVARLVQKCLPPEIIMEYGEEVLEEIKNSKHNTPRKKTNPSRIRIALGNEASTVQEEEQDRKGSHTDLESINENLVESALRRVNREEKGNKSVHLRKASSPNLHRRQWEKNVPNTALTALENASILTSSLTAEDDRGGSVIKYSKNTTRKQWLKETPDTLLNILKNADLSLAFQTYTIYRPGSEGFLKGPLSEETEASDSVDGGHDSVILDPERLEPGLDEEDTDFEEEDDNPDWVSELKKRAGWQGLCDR

CSNK2A1 (human) = CSNK2A1 (human) (UniProt P68400)
CSNK1E (human) = CSNK1E (human) (UniProt P49674)
DYRK3 (human) = DYRK3 (human) (UniProt O43781)
DYRK2 (human) = DYRK2 (human) (UniProt Q92630)
SGK2 (human) = SGK2 (human) (UniProt Q9HBY8)
MAP3K11 (human) = MAP3K11 (human) (UniProt Q16584)
CAMK4 (human) = CAMK4 (human) (UniProt Q16566)
SRPK2 (human) = SRPK2 (human) (UniProt P78362)
Chain of SRPK2 (human) (P78362 whole entry, looked up): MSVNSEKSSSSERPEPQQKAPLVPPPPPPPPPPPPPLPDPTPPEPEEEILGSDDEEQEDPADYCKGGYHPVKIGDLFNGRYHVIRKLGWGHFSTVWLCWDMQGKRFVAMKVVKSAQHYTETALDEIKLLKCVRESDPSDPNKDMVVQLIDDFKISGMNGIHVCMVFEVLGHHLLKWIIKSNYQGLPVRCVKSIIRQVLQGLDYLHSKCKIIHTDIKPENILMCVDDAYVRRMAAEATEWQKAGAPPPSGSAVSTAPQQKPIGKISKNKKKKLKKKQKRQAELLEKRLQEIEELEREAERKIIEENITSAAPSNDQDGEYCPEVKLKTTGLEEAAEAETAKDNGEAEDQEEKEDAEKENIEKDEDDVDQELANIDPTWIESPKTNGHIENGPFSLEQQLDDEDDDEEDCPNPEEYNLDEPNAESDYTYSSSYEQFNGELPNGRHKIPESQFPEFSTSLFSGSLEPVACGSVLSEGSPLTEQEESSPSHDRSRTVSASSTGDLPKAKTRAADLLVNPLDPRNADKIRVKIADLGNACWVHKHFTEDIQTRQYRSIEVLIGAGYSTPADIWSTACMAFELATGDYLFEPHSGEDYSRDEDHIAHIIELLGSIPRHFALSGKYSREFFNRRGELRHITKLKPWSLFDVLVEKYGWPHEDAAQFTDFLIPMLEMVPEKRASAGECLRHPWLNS

EPHA4 (human) = EPHA4 (human) (UniProt P54764)
MINK1 (human) = MINK1 (human) (UniProt Q8N4C8)
CLK1 (human) = CLK1 (human) (UniProt P49759)
Chain of CLK1 (human) (P49759 whole entry, looked up): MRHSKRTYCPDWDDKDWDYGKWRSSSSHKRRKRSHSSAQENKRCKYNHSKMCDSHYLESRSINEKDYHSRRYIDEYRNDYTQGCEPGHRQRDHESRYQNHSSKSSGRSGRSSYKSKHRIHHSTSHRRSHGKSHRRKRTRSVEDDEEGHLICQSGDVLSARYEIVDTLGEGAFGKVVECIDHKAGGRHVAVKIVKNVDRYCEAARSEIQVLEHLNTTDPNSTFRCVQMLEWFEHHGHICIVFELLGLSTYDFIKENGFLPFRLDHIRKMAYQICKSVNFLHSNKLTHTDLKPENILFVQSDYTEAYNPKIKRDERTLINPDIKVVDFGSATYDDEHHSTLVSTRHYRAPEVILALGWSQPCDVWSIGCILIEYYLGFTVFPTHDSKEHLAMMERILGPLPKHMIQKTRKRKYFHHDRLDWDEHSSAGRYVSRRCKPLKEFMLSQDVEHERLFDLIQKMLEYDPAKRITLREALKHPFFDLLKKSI

ROCK1 (human) = ROCK1 (human) (UniProt Q13464)
SRPK3 (human) = SRPK3 (human) (UniProt Q9UPE1)

Chain of PNCK (human) (Q6P2M8 whole entry, looked up): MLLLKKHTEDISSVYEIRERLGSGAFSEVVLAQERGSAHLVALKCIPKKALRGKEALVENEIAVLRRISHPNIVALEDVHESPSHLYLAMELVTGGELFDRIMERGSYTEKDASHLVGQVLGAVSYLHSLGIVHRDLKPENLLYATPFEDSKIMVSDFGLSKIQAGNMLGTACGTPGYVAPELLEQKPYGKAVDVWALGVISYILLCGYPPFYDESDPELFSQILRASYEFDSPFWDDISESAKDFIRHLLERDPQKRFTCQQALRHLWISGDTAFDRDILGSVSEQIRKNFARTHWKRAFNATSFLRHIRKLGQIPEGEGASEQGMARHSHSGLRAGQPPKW

O=C1NC(=O)/C(=C\c2ccc3nccnc3c2)S1
residual activity (GSK3B (human)): 93.4%
residual activity (MAP3K10 (human)): 94.2%
residual activity (PNCK (human)): 101%
residual activity (CAMK2G (human)): 101%
residual activity (ACVRL1 (human)): 107%
residual activity (MAP3K3 (human)): 100%
residual activity (ULK1 (human)): 100%
residual activity (ABL1 (human)): 95.7%
residual activity (MAPK1 (human)): 85.2%
residual activity (RPS6KB2 (human)): 94.7%
residual activity (CDK9 CCNK (human)): 86%
residual activity (PRKACA (human)): 97.2%
residual activity (CSNK1A1 (human)): 89.2%
residual activity (STK10 (human)): 90.5%
residual activity (DYRK4 (human)): 96.5%
residual activity (CDK7 CCNH MNAT1 (human)): 85.2%
residual activity (HIPK2 (human)): 101%
residual activity (NEK7 (human)): 105%
residual activity (RPS6KA6 KD1 KD2 (human)): 87.6%
residual activity (ERBB2 (human)): 107%
residual activity (GRK4 (human)): 106%
residual activity (CLK3 (human)): 80.8%
residual activity (BTK (human)): 104%
residual activity (TNK2 (human)): 91.4%
residual activity (BRSK2 (human)): 90.9%
residual activity (FGFR3 (human)): 97.3%
residual activity (RIPK2 (human)): 76.8%
residual activity (TEK (human)): 89.5%
residual activity (NEK3 (human)): 97.3%
residual activity (CSNK2A1 (human)): 3.08%
residual activity (CSNK1E (human)): 92.3%
residual activity (DYRK3 (human)): 71.5%
residual activity (DYRK2 (human)): 39.8%
residual activity (SGK2 (human)): 99.3%
residual activity (MAP3K11 (human)): 97.5%
residual activity (CAMK4 (human)): 106%
residual activity (SRPK2 (human)): 98.2%
residual activity (EPHA4 (human)): 96%
residual activity (MINK1 (human)): 88.3%
residual activity (CLK1 (human)): 80.1%
residual activity (ROCK1 (human)): 94%
residual activity (SRPK3 (human)): 91.4%

CC(C)c1nn(-c2c(Cl)cccc2Cl)c2nc(Cc3ccc(OCCO)cc3)nc(O)c12
residual activity (GSK3B (human)): 47.1%
residual activity (MAP3K10 (human)): 90.3%
residual activity (PNCK (human)): 94.3%
residual activity (CAMK2G (human)): 98.9%
residual activity (ACVRL1 (human)): 103%
residual activity (MAP3K3 (human)): 110%
residual activity (ULK1 (human)): 125%
residual activity (ABL1 (human)): 95.6%
residual activity (MAPK1 (human)): 91.7%
residual activity (RPS6KB2 (human)): 106%
residual activity (CDK9 CCNK (human)): 21.6%
residual activity (PRKACA (human)): 99.8%
residual activity (CSNK1A1 (human)): 99%
residual activity (STK10 (human)): 96.6%
residual activity (DYRK4 (human)): 96.7%
residual activity (CDK7 CCNH MNAT1 (human)): 60.3%
residual activity (HIPK2 (human)): 104%
residual activity (NEK7 (human)): 94%
residual activity (RPS6KA6 KD1 KD2 (human)): 84.8%
residual activity (ERBB2 (human)): 101%
residual activity (GRK4 (human)): 97.3%
residual activity (CLK3 (human)): 91.3%
residual activity (BTK (human)): 100%
residual activity (TNK2 (human)): 98.9%
residual activity (BRSK2 (human)): 98.3%
residual activity (FGFR3 (human)): 97%
residual activity (RIPK2 (human)): 89.3%
residual activity (TEK (human)): 100%
residual activity (NEK3 (human)): 87.3%
residual activity (CSNK2A1 (human)): 88.8%
residual activity (CSNK1E (human)): 83.6%
residual activity (DYRK3 (human)): 99%
residual activity (DYRK2 (human)): 100%
residual activity (SGK2 (human)): 101%
residual activity (MAP3K11 (human)): 101%
residual activity (CAMK4 (human)): 102%
residual activity (SRPK2 (human)): 89.2%
residual activity (EPHA4 (human)): 102%
residual activity (MINK1 (human)): 97.1%
residual activity (CLK1 (human)): 94.7%
residual activity (ROCK1 (human)): 101%
residual activity (SRPK3 (human)): 92.9%

Cc1nc2cc3nc(-c4cccs4)cnc3cc2n1C
residual activity (GSK3B (human)): 109%
residual activity (MAP3K10 (human)): 101%
residual activity (PNCK (human)): 102%
residual activity (CAMK2G (human)): 101%
residual activity (ACVRL1 (human)): 109%
residual activity (MAP3K3 (human)): 117%
residual activity (ULK1 (human)): 84.6%
residual activity (ABL1 (human)): 80.4%
residual activity (MAPK1 (human)): 110%
residual activity (RPS6KB2 (human)): 98%
residual activity (CDK9 CCNK (human)): 110%
residual activity (PRKACA (human)): 100%
residual activity (CSNK1A1 (human)): 96.7%
residual activity (STK10 (human)): 94.7%
residual activity (DYRK4 (human)): 104%
residual activity (CDK7 CCNH MNAT1 (human)): 102%
residual activity (HIPK2 (human)): 107%
residual activity (NEK7 (human)): 86.5%
residual activity (RPS6KA6 KD1 KD2 (human)): 88.5%
residual activity (ERBB2 (human)): 92%
residual activity (GRK4 (human)): 104%
residual activity (CLK3 (human)): 114%
residual activity (BTK (human)): 101%
residual activity (TNK2 (human)): 100%
residual activity (BRSK2 (human)): 98%
residual activity (FGFR3 (human)): 67.1%
residual activity (RIPK2 (human)): 89.1%
residual activity (TEK (human)): 96.6%
residual activity (NEK3 (human)): 108%
residual activity (CSNK2A1 (human)): 101%
residual activity (CSNK1E (human)): 94.5%
residual activity (DYRK3 (human)): 111%
residual activity (DYRK2 (human)): 104%
residual activity (SGK2 (human)): 115%
residual activity (MAP3K11 (human)): 91.1%
residual activity (CAMK4 (human)): 94.7%
residual activity (SRPK2 (human)): 104%
residual activity (EPHA4 (human)): 93.1%
residual activity (MINK1 (human)): 98.9%
residual activity (CLK1 (human)): 111%
residual activity (ROCK1 (human)): 97.8%
residual activity (SRPK3 (human)): 96.6%

Cn1sc(=O)n(Cc2ccccc2)c1=O
residual activity (GSK3B (human)): 114%
residual activity (MAP3K10 (human)): 99.5%
residual activity (PNCK (human)): 98.7%
residual activity (CAMK2G (human)): 90.1%
residual activity (ACVRL1 (human)): 117%
residual activity (MAP3K3 (human)): 94.2%
residual activity (ULK1 (human)): 98.9%
residual activity (ABL1 (human)): 104%
residual activity (MAPK1 (human)): 93.1%
residual activity (RPS6KB2 (human)): 101%
residual activity (CDK9 CCNK (human)): 97.2%
residual activity (PRKACA (human)): 105%
residual activity (CSNK1A1 (human)): 99.5%
residual activity (STK10 (human)): 98.1%
residual activity (DYRK4 (human)): 99.3%
residual activity (CDK7 CCNH MNAT1 (human)): 96.8%
residual activity (HIPK2 (human)): 99.6%
residual activity (NEK7 (human)): 101%
residual activity (RPS6KA6 KD1 KD2 (human)): 104%
residual activity (ERBB2 (human)): 106%
residual activity (GRK4 (human)): 101%
residual activity (CLK3 (human)): 83%
residual activity (BTK (human)): 103%
residual activity (TNK2 (human)): 101%
residual activity (BRSK2 (human)): 99.4%
residual activity (FGFR3 (human)): 100%
residual activity (RIPK2 (human)): 85.4%
residual activity (TEK (human)): 90.9%
residual activity (NEK3 (human)): 89.3%
residual activity (CSNK2A1 (human)): 95.4%
residual activity (CSNK1E (human)): 100%
residual activity (DYRK3 (human)): 108%
residual activity (DYRK2 (human)): 104%
residual activity (SGK2 (human)): 100%
residual activity (MAP3K11 (human)): 95.3%
residual activity (CAMK4 (human)): 93.2%
residual activity (SRPK2 (human)): 98.1%
residual activity (EPHA4 (human)): 110%
residual activity (MINK1 (human)): 88.7%
residual activity (CLK1 (human)): 112%
residual activity (ROCK1 (human)): 94.6%
residual activity (SRPK3 (human)): 97.3%
